The record followed here is patent US20260207578A1, “COMPOUND BASED ON SULFUR/OXYGEN SUBSTITUTED GLUTARIMIDE-BASED ISOINDOLINONE SKELETON AND USE THEREOF” (Gluetacs Therapeutics (Shanghai) Co., LTD., priority 2022, published 2026).

Bounds are passed on as bounds.

The target in this assay is T1, human Cereblon WT GST-tagged protein (Homo sapiens, UniProt Q96SW2).
T1 construct: purchased CISBIO 64BDCRBNPEH
T1 sequence (Q96SW2 whole entry): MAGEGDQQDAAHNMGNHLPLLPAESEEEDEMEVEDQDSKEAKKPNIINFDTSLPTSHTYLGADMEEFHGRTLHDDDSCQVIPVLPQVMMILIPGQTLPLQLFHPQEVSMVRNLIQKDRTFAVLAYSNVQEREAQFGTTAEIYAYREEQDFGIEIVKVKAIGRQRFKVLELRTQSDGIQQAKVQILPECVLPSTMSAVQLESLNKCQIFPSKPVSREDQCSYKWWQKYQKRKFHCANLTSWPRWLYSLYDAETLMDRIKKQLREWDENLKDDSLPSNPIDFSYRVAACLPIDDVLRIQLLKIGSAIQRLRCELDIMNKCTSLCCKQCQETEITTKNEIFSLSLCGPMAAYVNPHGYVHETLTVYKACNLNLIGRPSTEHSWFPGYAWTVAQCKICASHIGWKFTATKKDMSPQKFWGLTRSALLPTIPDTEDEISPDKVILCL
The assay is described as follows: CRBN-binding affinity, HTRF (CEREBLON BINDING kit). Conditions: displacement of Thalidomide-Re reagent, 3 hours at room temperature. As for the experimental part:
The CEREBLON BINDING kits (specification: 10,000 tests; product number: Catalog #64BDCRBNPEH; CISBIO company) was used to determine the CRBN binding ability of the compounds to be tested through a HTRF method (homogeneous time-resolved fluorescence). The specific methods are as follows: • 1. […] Then, 2.5 μL of human Cereblon WT GST-tagged protein solution was added to each well. Finally, 5 μL of the thoroughly mixed Thalidomide-Re reagent and GST Eu antibody working solution were added to each of the aforementioned wells. […] The blank control wells were sequentially added with 2.5 μL of diluent #9 (1×) solution, 2.5 μL of PROTAC binding buffer, and 5 μL of thoroughly mixed Thalidomide-Re reagent and GST Eu antibody working solution. • 4.
OD 620 nmcompound is the absorbance value of each well of the compounds to be tested of the present disclosure at an emission wavelength of 620 nm. […] OD 620 nmcontrol is the absorbance value of the blank control well at an emission wavelength of 620 nm. […] OD 620 nmStd0 is the absorbance value of the solvent control well at an emission wavelength of 620 nm.
(In TR-FRET formats the signal depends on donor and acceptor labels being close together.)
With `CC1(C)CCC(C(=O)N2CCCC(Oc3ccc4c(c3)CN(C3CCC(=O)NC3=O)C4=O)CC2)=C(c2ccc(Cl)cc2)C1` (stereo not shown) [GT-07018, 3-(5-((1-(4′-chloro-5,5-dimethyl-3,4,5,6-tetrahydro-[1,1′-biphenyl]-2-carbonyl)azepan-4-yl)oxy)-1-oxoisoindolin-2-yl)piperidine-2,6-dione], the IC50 was less than 0.5 µM.
As for `O=C1CCC(N2Cc3cc(SC4CC5CNCC5C4)ccc3C2=O)C(=O)N1` (stereo not shown) [GT-06996, 3-(5-((octahydrocyclopenta[c]pyrrol-5-yl)thio)-1-oxoisoindolin-2-yl)piperidine-2,6-dione], the IC50 fell in the range of 1 to 1.9 µM.
`O=C1CCC(N2Cc3cc(SC4CN(C(c5ccccc5)c5cccnc5)C4)ccc3C2=O)C(=O)N1` (stereo not shown) [GT-06807, 3-(1-oxo-5-((1-(phenyl(pyridin-3-yl)methyl)azetidin-3-yl)thio)isoindolin-2-yl)piperidine-2,6-dione] came in with an IC50 of less than 0.5 µM.
`O=C1CCC(N2Cc3cc(SC4CCNCC4(F)F)ccc3C2=O)C(=O)N1` (stereo not shown) [GT-06999, 3-(5-((3,3-difluoropiperidin-4-yl)thio)-1-oxoisoindolin-2-yl)piperidine-2,6-dione] registered an IC50 of 0.5 to 1 µM.
The figure for `CC1(C)CCC(CN2CC(Sc3ccc4c(c3)C(=O)N(C3CCC(=O)NC3=O)C4)C2)=C(c2ccc(Cl)cc2)C1` (stereo not shown) [GT-06757, 3-(6-((1-((4′-chloro-5,5-dimethyl-3,4,5,6-tetrahydro-[1,1′-biphenyl]-2-yl)methyl)azetidin-3-yl)thio)-1-oxoisoindolin-2-yl)piperidine-2,6-dione] is 1 to 1.9 µM; for `CC1(C)CCC(C(=O)N2CCC(Sc3ccc4c(c3)CN(C3CCC(=O)NC3=O)C4=O)C(F)(F)C2)=C(c2ccc(Cl)cc2)C1` (stereo not shown) [GT-07017, 3-(5-((1-(4′-chloro-5,5-dimethyl-3,4,5,6-tetrahydro-[1,1′-biphenyl]-2-carbonyl)-3,3-difluoropiperidin-4-yl)thio)-1-oxoisoindolin-2-yl)piperidine-2,6-dione] it is 1 to 1.9 µM.
Take `COc1ccc(C(c2ccc(OC)cc2)N2CC(Sc3ccc4c(c3)CN(C3CCC(=O)NC3=O)C4=O)C2)cc1` (stereo not shown) [GT-06923, 3-(5-((1-(bis(4-methoxyphenyl)methyl)azetidin-3-yl)thio)-1-oxoisoindolin-2-yl)piperidine-2,6-dione]: the 50% inhibitory concentration (IC50) is less than 0.5 µM.
The figure for `O=C1CCC(N2Cc3cc(SC4CN(C(c5ccc(Cl)cc5)c5ccc(Cl)cc5)C4)ccc3C2=O)C(=O)N1` (stereo not shown) [GT-06504, 3-(5-((1-(bis(4-chlorophenyl)methyl)azetidin-3-yl)thio)-1-oxoisoindolin-2-yl)piperidine-2,6-dione] is 0.5 to 1 µM.
Molecule `O=C1CCC(N2Cc3cc(SC4CCC5(CCNCC5)CC4)ccc3C2=O)C(=O)N1` (stereo not shown) [GT-06998, 3-(5-((3-azaspiro[5.5]undecan-9-yl)thio)-1-oxoisoindolin-2-yl)piperidine-2,6-dione] showed an IC50 of 1 to 1.9 µM.
The figure for `CC1(C)CCC(C(=O)N2CCC(Sc3ccc4c(c3)CN(C3CCC(=O)NC3=O)C4=O)C2)=C(c2ccc(Cl)cc2)C1` (stereo not shown) [GT-06139, 3-(5-((1-(4′-chloro-5,5-dimethyl-3,4,5,6-tetrahydro-[1,1′-biphenyl]-2-carbonyl)pyrrolidin-3-yl)thio)-1-oxoisoindolin-2-yl)piperidine-2,6-dione] is 0.5 to 1 µM.
`O=C1CCC(N2Cc3cc(SC4CCN(Cc5ccccc5-c5ccc(Cl)cc5)C4)ccc3C2=O)C(=O)N1` (stereo not shown) [GT-04195, 3-(5-((1-((4′-chloro-[1,1′-biphenyl]-2-yl)methyl)pyrrolidin-3-yl)thio)-1-oxoisoindolin-2-yl)piperidine-2,6-dione] came in with an IC50 of 1 to 1.9 µM.
The figure for `O=C1CCC(N2Cc3c(OC4CNC4)cccc3C2=O)C(=O)N1` (stereo not shown) [GT-07000, 3-(4-(azetidin-3-yloxy)-1-oxoisoindolin-2-yl)piperidine-2,6-dione] is less than 0.5 µM.
With `O=C1CCC(N2Cc3cc(OC4CC5CNCC5C4)ccc3C2=O)C(=O)N1` (stereo not shown) [GT-07004, 3-(5-((octahydrocyclopenta[c]pyrrol-5-yl)oxy)-1-oxoisoindolin-2-yl)piperidine-2,6-dione] the figure was 1 to 1.9 µM.

What is called IC50 is the midpoint of a concentration-inhibition curve. A higher IC50 goes with weaker potency.
